23 molecules from patent publication US20230365582A1, “NOVEL COMPOUNDS HAVING INHIBITORY ACTIVITY ON PROSTAGLANDIN E2 RECEPTOR AND USES THEREOF” (KANAPH THERAPEUTICS INC., priority 2020, published 2023) can be followed below.

The structures appear in SMILES notation. Some results are limits rather than exact numbers.

Experiment [1] deals with T1, hEP2 (Homo sapiens, UniProt P43116).
T1 construct: expressed in transfected cells; host or cells: HEK293
Put plainly: hEP2 cAMP assay. It is filed as cell-based. The note with it: HEK293 cells overexpressing hEP2; PGE2 agonist 400 pM; graded per Table 21; read-out: IC50 (nM) EP2 cAMP. On the procedure: HEK293 cells overexpressing hEP2 were cultured in growth medium (GM: MEM (Gibco™, 11095080)/10% HI FBS (Gibco™, 10082147)/1% penicillin/streptomycin). Before the experiment, the growth medium was removed, and starvation medium (HBSS (Gibco™, 14025076)/10% GM) was added. Thereafter, the cells were incubated for 4 hours. The HEK293 cells harboring hEP2 were detached from the culture dish with a non-enzymatic cell dissociation buffer (Gibco™, 15040066). The cells were resuspended in assay buffer (AB: HBSS, 0.1% BSA stabilizer, 0.5 mM IBMX, 5 mM HEPES).
(§1) 1,000 cells in 5 μL of AB were seeded per well in a 384 well plate (Corning™, 3570), and stock solutions of test compounds were prepared at a concentration of 1 mM in DMSO and serially diluted in DMSO to the concentration required for the inhibition dose response curve (test concentration range of 10 μM-0.001 nM). PGE2 (Sigma, P0409, stock solution: 1 μM) was used as an agonist at a final concentration of 400 pM corresponding to EC50-80. 2.5 μL of the diluted compound and 2.5 μL of PGE2 (400 pM final concentration) were transferred to the assay plate, and then the plate was incubated at room temperature for 12 minutes.
(§2) 5 μL of each donor (Eu-cAMP tracer) and acceptor (ULight-anti-cAMP) was added, and the plate was incubated in the dark for 1 hour at room temperature, and then a Varioskan LUX multimode microplate reader was used to obtain the results (excitation: 334 nm, emission: 615 and 665 nm). The resulting FRET fluorescence value (665 nm/615 nm*10000) was converted and then calculated as a percentage of cAMP relative to the DMSO control value. IC50 values and curves were generated with GraphPad Prism software using log (inhibitor) versus response-variable slopes (4 parameters), and the median of multiple experiments was taken as the experiment result.

For experiment [2], the target named is T2, hEP4 (Homo sapiens, UniProt P35408).
T2 construct: expressed in transfected cells; host or cells: HEK293
T2 sequence (P35408 whole entry): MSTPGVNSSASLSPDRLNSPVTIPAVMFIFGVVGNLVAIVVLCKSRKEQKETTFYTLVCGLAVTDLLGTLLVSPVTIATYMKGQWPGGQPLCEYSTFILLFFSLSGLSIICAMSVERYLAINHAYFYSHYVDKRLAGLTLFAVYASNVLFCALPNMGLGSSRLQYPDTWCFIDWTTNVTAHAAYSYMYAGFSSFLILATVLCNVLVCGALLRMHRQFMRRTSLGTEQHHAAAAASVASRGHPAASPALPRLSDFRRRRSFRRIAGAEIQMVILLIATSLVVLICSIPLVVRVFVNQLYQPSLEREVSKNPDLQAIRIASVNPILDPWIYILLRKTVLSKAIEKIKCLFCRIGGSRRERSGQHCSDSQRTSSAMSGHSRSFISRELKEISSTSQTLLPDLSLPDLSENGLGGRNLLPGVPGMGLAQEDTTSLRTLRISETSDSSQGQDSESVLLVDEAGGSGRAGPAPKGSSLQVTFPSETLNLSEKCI
Put plainly: hEP4 cAMP assay. It is filed as cell-based. Conditions: HEK293 cells overexpressing hEP4; PGE2 agonist 20 nM; graded per Table 21; read-out: IC50 (nM) EP4 cAMP. Here is the method:
HEK293 cells overexpressing hEP4 were cultured in growth medium (GM: MEM (Gibco™, 11095080)/10% HI FBS (Gibco™, 10082147)/1% penicillin/streptomycin). Before the experiment, the growth medium was removed, and starvation medium (HBSS (Gibco™ 14025076)/10% GM) was added. Thereafter, the cells were incubated for 4 hours. HEK293 cells harboring hEP4 were detached from the culture dish with a non-enzymatic cell dissociation buffer (Gibco™, 15040066). The cells were resuspended in assay buffer (AB: HBSS, 0.1% BSA stabilizer, 0.5 mM IBMX, 5 mM HEPES).
as §1, with “plate (Corning®,” for “plate (Corning™,”, “solution: 100” for “solution: 1”, “of 20 nM” for “of 400 pM”, “PGE2 (20 nM” for “PGE2 (400 pM”, “for 18.5” for “for 12”
as §2, with “compared” for “relative”, “slope” for “slopes”

T1 sequence (P43116 whole entry): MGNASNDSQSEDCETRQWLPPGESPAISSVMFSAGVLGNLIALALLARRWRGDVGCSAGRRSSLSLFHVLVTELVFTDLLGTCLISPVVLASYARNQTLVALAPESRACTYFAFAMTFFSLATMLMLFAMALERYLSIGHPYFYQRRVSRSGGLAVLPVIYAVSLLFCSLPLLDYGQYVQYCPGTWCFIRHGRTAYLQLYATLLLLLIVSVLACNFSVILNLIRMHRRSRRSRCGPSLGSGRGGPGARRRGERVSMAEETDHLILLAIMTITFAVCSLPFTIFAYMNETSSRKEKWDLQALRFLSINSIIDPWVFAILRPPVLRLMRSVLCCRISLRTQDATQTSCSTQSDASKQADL

Turning to `Cc1sc(C)c(C(=O)N[C@H]2CC3(C2)C[C@H](C(=O)O)C3)c1Cc1ccc(-c2ccccc2)cc1` (single isomer, unassigned) [Example 1a], the IC50 in experiment [1] and in experiment [2] was above 10000 nM throughout.

Regarding `Cc1sc(C)c(C(=O)N[C@H]2CC3(C2)C[C@H](C(=O)O)C3)c1Cc1ccc(-c2ccccc2)cc1` (single isomer, unassigned) [Example 1b], the IC50 in experiment [1] was 500 to 5000 nM; in experiment [2], below 500 nM.

Consider `COc1cc(F)cc(-c2ccc(Cc3c(C)sc(C)c3C(=O)N[C@H]3CC4(C3)C[C@H](C(=O)O)C4)cc2)c1` (single isomer, unassigned) [Example 34a], for which the IC50 in experiment [1] lay in the range of 5000 to 10000 nM; in experiment [2] it was 500 to 5000 nM.

As to `COc1cc(F)cc(-c2ccc(Cc3c(C)sc(C)c3C(=O)N[C@H]3CC4(C3)C[C@H](C(=O)O)C4)cc2)c1` (single isomer, unassigned) [Example 34b], the IC50 in experiment [1] and in experiment [2] was below 500 nM throughout.

Consider `O=C(N[C@H]1CC2(C1)C[C@H](C(=O)O)C2)c1csc2ccn(Cc3ccc(-c4ccccc4)cc3)c12` (single isomer, unassigned) [Example 79a], for which the half-inhibitory concentration (IC50) in experiment [1] and in experiment [2] was 500 to 5000 nM in each case.

For the molecule `O=C(N[C@H]1CC2(C1)C[C@H](C(=O)O)C2)c1csc2ccn(Cc3ccc(-c4ccccc4)cc3)c12` (single isomer, unassigned) [Example 79b], the IC50 in experiment [1] and in experiment [2] was below 500 nM in each case.

As for `Cc1sc2ccn(Cc3ccc(-c4ccccc4)cc3)c2c1C(=O)N[C@H]1CC2(C1)C[C@H](C(=O)O)C2` (single isomer, unassigned) [Example 80a], the IC50 in experiment [1] was 500 to 5000 nM; in experiment [2], above 10000 nM.

As for `Cc1sc2ccn(Cc3ccc(-c4ccccc4)cc3)c2c1C(=O)N[C@H]1CC2(C1)C[C@H](C(=O)O)C2` (single isomer, unassigned) [Example 80b], in experiment [2], the IC50 was below 500 nM.

On to `Cc1sc(C)c(C(=O)NC2CC3(C2)CC(C(=O)O)C3)c1Cc1ccc(-c2ccccc2)cc1` (stereo not drawn) [Example 1, 6-(4-([1,1′-biphenyl]-4-ylmethyl)-2,5-dimethylthiophene-3-carboxamido)spiro[3.3]heptane-2-carboxylic acid], for which the IC50 is 500 to 5000 nM in experiment [1] and below 500 nM in experiment [2].

For `Cc1ccc(Cc2c(C)sc(C)c2C(=O)NC2CC3(C2)CC(C(=O)O)C3)cc1` (stereo not drawn) [Example 2, 6-(2,5-dimethyl-4-(4-methylbenzyl)thiophene-3-carboxamido)spiro[3.3]heptane-2-carboxylic acid], the IC50 in experiment [1] and in experiment [2] was above 10000 nM throughout.

`Cc1sc(C)c(C(=O)NC2CC3(C2)CC(C(=O)O)C3)c1Cc1cccc(-c2ccccc2)c1` (stereo not drawn) [Example 3, 6-(4-([1,1′-biphenyl]-3-ylmethyl)-2,5-dimethylthiophene-3-carboxamido)spiro[3.3]heptane-2-carboxylic acid]: the results for the IC50 in experiment [1] and in experiment [2] were above 10000 nM and 5000 to 10000 nM, respectively.

For the molecule `Cc1sc(C)c(C(=O)NC2CC3(C2)CC(C(=O)O)C3)c1Cc1ccccc1-c1ccccc1` (stereo not drawn) [Example 4, 6-(4-([1,1′-biphenyl]-2-ylmethyl)-2,5-dimethylthiophene-3-carboxamido)spiro[3.3]heptane-2-carboxylic acid], the IC50 in experiment [1] and in experiment [2] was above 10000 nM throughout.

In the case of `Cc1sc(C)c(C(=O)NC2CC3(C2)CC(C(=O)O)C3)c1Cc1ccc(Oc2ccccc2)cc1` (stereo not drawn) [Example 5, 6-(2,5-dimethyl-4-(4-phenoxybenzyl)thiophene-3-carboxamido)spiro[3.3]heptane-2-carboxylic acid], the figures for the IC50 in experiment [1] and in experiment [2] were above 10000 nM and 5000 to 10000 nM, respectively.

In the case of `Cc1sc(C)c(C(=O)NC2CC3(C2)CC(C(=O)O)C3)c1CCc1ccc(-c2ccccc2)cc1` (stereo not drawn) [Example 6, 6-(4-(2-([1,1′-biphenyl]-4-yl)ethyl)-2,5-dimethylthiophene-3-carboxamido)spiro[3.3]heptane-2-carboxylic acid], the half-inhibitory concentration (IC50) in experiment [1] and in experiment [2] was above 10000 nM throughout.

For the molecule `Cc1sc(C)c(C(=O)NC2CC3(C2)CC(C(=O)O)C3)c1Cc1ccc(-c2ccccc2)cc1F` (stereo not drawn) [Example 7, 6-(4-((3-fluoro-[1,1′-biphenyl]-4-yl)methyl)-2,5-dimethylthiophene-3-carboxamido)spiro[3.3]heptane-2-carboxylic acid], the half-maximal inhibitory concentration (IC50) in experiment [1] is 500 to 5000 nM; in experiment [2], below 500 nM.

Turning to `Cc1sc(C)c(C(=O)NC2CC3(C2)CC(C(=O)O)C3)c1Cc1ccc(-c2ccccc2)c(N)c1` (stereo not drawn) [Example 8, 6-(4-((2-amino-[1,1′-biphenyl]-4-yl)methyl)-2,5-dimethylthiophene-3-carboxamido)spiro [3.3]heptane-2-carboxylic acid], the IC50 is above 10000 nM in experiment [1] and 500 to 5000 nM in experiment [2].

With `Cc1sc(C)c(C(=O)NC2CC3(C2)CC(C(=O)O)C3)c1Cc1ccc(N2CCOCC2)cc1` (stereo not drawn) [Example 9, 6-(2,5-dimethyl-4-(4-morpholinobenzyl)thiophene-3-carboxamido)spiro[3.3]heptane-2-carboxylic acid], the IC50 in experiment [1] and in experiment [2] was above 10000 nM in each case.

As to `Cc1sc(C)c(C(=O)c2ccc(-c3ccccc3)cc2)c1C(=O)NC1CC2(C1)CC(C(=O)O)C2` (stereo not drawn) [Example 10, 6-(4-([1,1′-biphenyl]-4-carbonyl)-2,5-dimethylthiophene-3-carboxamido)spiro[3.3]heptane-2-carboxylic acid], the values for the IC50 in experiment [1] and in experiment [2] were above 10000 nM and 500 to 5000 nM, respectively.

With `Cc1sc(C)c(C(O)c2ccc(-c3ccccc3)cc2)c1C(=O)NC1CC2(C1)CC(C(=O)O)C2` (stereo not drawn) [Example 11, 6-(4-([1,1′-biphenyl]-4-yl(hydroxy)methyl)-2,5-dimethylthiophene-3-carboxamido)spiro[3.3]heptane-2-carboxylic acid], the IC50 in experiment [1] is above 10000 nM; in experiment [2] it was below 500 nM.

For `COC(c1ccc(-c2ccccc2)cc1)c1c(C)sc(C)c1C(=O)NC1CC2(C1)CC(C(=O)O)C2` (stereo not drawn) [Example 12, 6-(4-([1,1′-biphenyl]-4-yl(methoxy)methyl)-2,5-dimethylthiophene-3-carboxamido)spiro[3.3]heptane-2-carboxylic acid], the IC50 in experiment [1] and in experiment [2] was above 10000 nM each time.

On to `O=C(NC1CC2(C1)CC(C(=O)O)C2)c1cscc1Cc1ccc(-c2ccccc2)cc1` (stereo not drawn) [Example 13, 6-(4-([1,1′-biphenyl]-4-ylmethyl)thiophene-3-carboxamido)spiro[3.3]heptane-2-carboxylic acid], for which the IC50 in experiment [1] and in experiment [2] was 500 to 5000 nM each time.

Consider `Cc1scc(Cc2ccc(-c3ccccc3)cc2)c1C(=O)NC1CC2(C1)CC(C(=O)O)C2` (stereo not drawn) [Example 14, 6-(4-([1,1′-biphenyl]-4-ylmethyl)-2-methylthiophene-3-carboxamido)spiro[3.3]heptane-2-carboxylic acid], for which the IC50 in experiment [1] and in experiment [2] was 500 to 5000 nM in each case.

For the molecule `O=C(NC1CC2(C1)CC(C(=O)O)C2)c1csc(Br)c1Cc1ccc(-c2ccccc2)cc1` (stereo not drawn) [Example 15, 6-(4-([1,1′-biphenyl]-4-ylmethyl)-5-bromothiophene-3-carboxamido)spiro[3.3]heptane-2-carboxylic acid], the IC50 in experiment [1] and in experiment [2] was below 500 nM throughout.
